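Growth conditions: 96-well plates. Treatment: test compound, 48 hours, 5 concentrations. Analysis: linear interpolation between bracketing concentrations; unreached endpoints set to highest concentration. GI50 marks 50% less growth.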 Calls of active or inactive are those of the source. Cut-off read from the data, not from the text of the source: active = GI50 up to about 1.1 µM and inactive = higher.

In general, GI50 refers to the concentration at which growth is held to half of that of the control.

What all share (test): DTP human tumour cell line panel, 48 h
In test [1] the test system is T47D.
For test [2], the system named is HT-29.
In test [3] the test system is SN12C.
Test [4] relates to HCT-15.
Test [5] concerns NCI-H460.
Test [6] has as its system SF-295.
The test system of test [7] is SK-MEL-28.
Test [8] relates to CCRF-CEM.
The subject of test [9] is NCI-H226.
For test [10], the system named is ACHN.
For test [11], the system named is BT-549.
Test [12] has as its system K562.
Test [13] has as its system MCF7.
In test [14] the test system is SK-MEL-5.
Test [15] relates to A498.
For test [16], the system named is MDA-MB-231.
The test system of test [17] is NCI-H23.
Test [18] has as its system RPMI-8226.
Test [19] relates to HCC 2998.

Consider `Nc1ccc(Oc2ccc(C34CC5CC(C3)CC(c3ccc(Oc6ccc(N)cc6C(F)(F)F)cc3)(C5)C4)cc2)c(C(F)(F)F)c1`, for which the GI50 in [1] is 15.1 µM (inactive); in [2], 17.2 µM (inactive); in test [3], 31.1 µM (inactive); in test [4] it was 31.8 µM; in test [5], 18.4 µM (inactive); in test [6], 25.3 µM (inactive). Further, the GI50 is 43.3 µM (inactive) in [7]; 36.1 µM (inactive) in test [8]; 19.4 µM (inactive) in test [9]; 32.9 µM (inactive) in [10]; 21.9 µM (inactive) in test [11]; 44 µM (inactive) in test [12]. For the same molecule, the GI50 was 13.4 µM (inactive) in test [13]; 22 µM (inactive) in test [14]; 18.3 µM (inactive) in [15]; 15.2 µM (inactive) in [16]; 17.7 µM (inactive) in test [17].
For `Cc1c(C)c2c(c(N)c1C#N)C(=O)N(Nc1ccccc1)C2=O`, the GI50 in [1] is 9.95 µM (inactive); in test [3], > 100 µM (inactive); in [4] it was > 100 µM; in test [5] it was 60.8 µM (inactive); in test [6] it was 34.1 µM (inactive); in test [7] it was > 100 µM (inactive). The GI50 in [18] was > 100 µM (inactive); in test [8], 97.1 µM (inactive); in test [9], 61.2 µM (inactive); in [10], 60.1 µM (inactive); in test [11] it was > 100 µM (inactive); in test [12], > 100 µM (inactive). The GI50 in test [13] was 60.1 µM (inactive); in [14] it was > 100 µM (inactive); in test [16], 31.9 µM (inactive); in [19] it was > 100 µM (inactive).
On to `NC(CCC(=O)O)C(=O)N1CCN(c2nc(N3CCCC3)c3nc(Cl)c(NCc4ccccc4)nc3n2)CC1` (centres undefined), for which the GI50 in [1] was 6.64 µM (inactive); in [2] it was 9.95 µM (inactive); in test [3], 15.8 µM (inactive); in test [4], 14 µM; in test [5] it was 10.3 µM (inactive); in test [6], 11.6 µM (inactive). Besides, the GI50 in test [7] was 9.48 µM (inactive); in [18], 5.79 µM (inactive); in test [8] it was 7.19 µM (inactive); in test [9], 12.3 µM (inactive); in test [10], 15.1 µM (inactive); in [11], 12.1 µM (inactive). For the same molecule, the GI50 is 12.7 µM (inactive) in test [12]; 7.24 µM (inactive) in test [13]; 8.04 µM (inactive) in test [14]; 14.4 µM (inactive) in test [16]; 11.4 µM (inactive) in test [19]; 15.4 µM (inactive) in [17].
As to `CCN(CC)c1ccc2cc(C(=O)Nc3ccccn3)c(=N)oc2c1`, the GI50 in test [1] is 99.8 µM (inactive); in test [2], 32.2 µM (inactive); in test [3], > 100 µM (inactive); in [4], > 100 µM; in test [5], > 100 µM (inactive); in [7], > 100 µM (inactive). Also, the GI50 in test [18] was > 100 µM (inactive); in [8] it was > 100 µM (inactive); in test [9], > 100 µM (inactive); in [10], 26.9 µM (inactive); in test [11] it was > 100 µM (inactive); in test [12], > 100 µM (inactive). The GI50 in [14] was > 100 µM (inactive); in test [15], > 100 µM (inactive); in [16] it was 47.5 µM (inactive); in test [19], > 100 µM (inactive); in [17], 37.8 µM (inactive).
As to `COc1cc2c(cc1OC)[C@@](C)(C(O)C(O)C(C)(C)O)NCC2` (some centres undefined), the GI50 in test [1] is > 100 µM (inactive); in test [2], > 100 µM (inactive); in test [3], > 100 µM (inactive); in [4], > 100 µM; in test [6] it was > 100 µM (inactive); in test [7], > 100 µM (inactive). Also, the GI50 in test [18], in test [8], in test [9], in test [10], in test [11] and in test [12] was > 100 µM (inactive) throughout. For the same molecule, the GI50 in [13], in [14], in test [15], in [16] and in [17] was > 100 µM (inactive) in each case.
`C(=N\c1ccc(-c2nc3ccccc3[nH]2)cc1)/c1ccco1`: the GI50 in test [1] was 38.5 µM (inactive); in test [2], > 100 µM (inactive); in test [3], > 100 µM (inactive); in test [4], 61 µM; in test [7], > 100 µM (inactive); in [18] it was 34.8 µM (inactive). Also, the GI50 is 16.5 µM (inactive) in test [8]; > 100 µM (inactive) in [9]; > 100 µM (inactive) in [10]; > 100 µM (inactive) in [11]; 37.6 µM (inactive) in [12]; 21.1 µM (inactive) in test [13]. Besides, the GI50 was 25.5 µM (inactive) in test [14], > 100 µM (inactive) in test [15], 76.4 µM (inactive) in [19] and 82.6 µM (inactive) in test [17].
On to `Cc1cn2cc(-c3cccs3)nc2s1`, for which the GI50 in test [1] was 25.4 µM (inactive); in test [2], > 41.2 µM (inactive); in [3], > 100 µM (inactive); in [4], > 71.9 µM; in [5] it was > 100 µM (inactive); in [6], > 100 µM (inactive). For the same molecule, the GI50 was > 100 µM (inactive) in [7]; > 100 µM (inactive) in [18]; 54.6 µM (inactive) in test [8]; > 24.6 µM (inactive) in test [9]; > 88.5 µM (inactive) in [10]; > 100 µM (inactive) in [11]. Also, the GI50 in [12] was 99.3 µM (inactive); in [13], > 53.5 µM (inactive); in test [14], > 61.8 µM (inactive); in [15], 27.2 µM (inactive); in test [19], 63.4 µM (inactive); in test [17] it was > 75.5 µM (inactive).
For the molecule `COc1cccc(C23CCN(C)C(CC(O)C2)C3)c1OC` (centres undefined), the GI50 was > 100 µM (inactive) in [1]; > 100 µM (inactive) in test [2]; > 100 µM (inactive) in test [3]; > 100 µM in test [4]; > 100 µM (inactive) in [6]; > 100 µM (inactive) in test [7]. The GI50 in test [18], in test [8], in [9], in test [10], in test [11] and in test [12] was > 100 µM (inactive) in each case. The GI50 in test [13], in test [14], in [15], in test [16] and in test [17] was > 100 µM (inactive) throughout.
Take `CO/N=C(\C(=O)Nc1cncs1)c1csc(NC(c2ccccc2)(c2ccccc2)c2ccccc2)n1`: the GI50 was 6.52 µM (inactive) in [1]; 4.63 µM (inactive) in test [2]; > 10 µM (inactive) in [3]; > 10 µM in test [4]; 4.56 µM (inactive) in test [5]; 7.21 µM (inactive) in [6]. Further, the GI50 in test [7] is > 10 µM (inactive); in test [18], 4.52 µM (inactive); in [8] it was 3.81 µM (inactive); in test [9] it was > 10 µM (inactive); in test [10] it was > 10 µM (inactive); in test [11], > 10 µM (inactive). For the same molecule, the GI50 is > 10 µM (inactive) in test [12]; 6.08 µM (inactive) in test [13]; > 10 µM (inactive) in test [14]; > 10 µM (inactive) in [15]; 8.53 µM (inactive) in test [19]; > 10 µM (inactive) in [17].
Regarding `Cc1ccc(/C=C2/NC(=S)SC2=O)cc1`, the GI50 in test [1] was 31.3 µM (inactive); in test [2] it was 28.6 µM (inactive); in test [3], 31 µM (inactive); in test [4] it was 24.2 µM; in test [5], 22.4 µM (inactive); in [6], 27.6 µM (inactive). Also, the GI50 in [7] is > 100 µM (inactive); in test [9], 25.7 µM (inactive); in [10] it was 33 µM (inactive); in test [11], 22.6 µM (inactive); in [13], 39.6 µM (inactive); in test [14] it was 32.1 µM (inactive). Moreover, the GI50 in test [16] is 24.4 µM (inactive); in test [19], 31.2 µM (inactive); in [17], 20.7 µM (inactive).
`S=c1c2cn[nH]c2nc2scc(-c3ccc(Cl)cc3)n12`: the GI50 in test [1] is > 10 µM (inactive); in [2], 16.7 µM (inactive); in test [3], 16.6 µM (inactive); in [4], 10.7 µM; in test [5], 20.6 µM (inactive); in test [6], > 10 µM (inactive). In addition, the GI50 in test [7] is 18.1 µM (inactive); in test [18] it was 23.6 µM (inactive); in test [8], 16.2 µM (inactive); in test [10], 12.9 µM (inactive); in [11] it was 10.5 µM (inactive); in test [12], 10.9 µM (inactive). Besides, the GI50 in test [13] is 18.5 µM (inactive); in test [14] it was 17.6 µM (inactive); in test [16] it was 17 µM (inactive); in test [19], 15.4 µM (inactive); in test [17] it was 13.8 µM (inactive).
Turning to `COc1ccc(C2SC(C)C(=O)N2c2nc(-c3nc(-c4ccc(Cl)cc4)cs3)cs2)cc1` (centres undefined), the GI50 in [1] is 46.1 µM (inactive); in test [2], > 100 µM (inactive); in [3], > 100 µM (inactive); in test [4], > 100 µM; in test [5], > 100 µM (inactive); in test [6], > 100 µM (inactive). The GI50 in test [7] is > 10 µM (inactive); in test [18] it was > 100 µM (inactive); in test [8], 85.3 µM (inactive); in [9], > 100 µM (inactive); in [10] it was > 100 µM (inactive); in [11], > 100 µM (inactive). The GI50 in [12], in [13], in test [14], in test [16], in test [19] and in test [17] was > 100 µM (inactive) each time.
